Laboratory results from PMC3567212 (Biochemistry, 2012).
Positions count from the first letter of the chain named.

Experiments:
Assay in all cases: coupled spectrophotometric assay
Format in all cases: biochemical
[1] = biological target: T1, Rhizobium etli pyruvate carboxylase (RePC) (Rhizobium etli, UniProt Q2K340, R427S)
T1 sequence (Q2K340 1-1154 R427S): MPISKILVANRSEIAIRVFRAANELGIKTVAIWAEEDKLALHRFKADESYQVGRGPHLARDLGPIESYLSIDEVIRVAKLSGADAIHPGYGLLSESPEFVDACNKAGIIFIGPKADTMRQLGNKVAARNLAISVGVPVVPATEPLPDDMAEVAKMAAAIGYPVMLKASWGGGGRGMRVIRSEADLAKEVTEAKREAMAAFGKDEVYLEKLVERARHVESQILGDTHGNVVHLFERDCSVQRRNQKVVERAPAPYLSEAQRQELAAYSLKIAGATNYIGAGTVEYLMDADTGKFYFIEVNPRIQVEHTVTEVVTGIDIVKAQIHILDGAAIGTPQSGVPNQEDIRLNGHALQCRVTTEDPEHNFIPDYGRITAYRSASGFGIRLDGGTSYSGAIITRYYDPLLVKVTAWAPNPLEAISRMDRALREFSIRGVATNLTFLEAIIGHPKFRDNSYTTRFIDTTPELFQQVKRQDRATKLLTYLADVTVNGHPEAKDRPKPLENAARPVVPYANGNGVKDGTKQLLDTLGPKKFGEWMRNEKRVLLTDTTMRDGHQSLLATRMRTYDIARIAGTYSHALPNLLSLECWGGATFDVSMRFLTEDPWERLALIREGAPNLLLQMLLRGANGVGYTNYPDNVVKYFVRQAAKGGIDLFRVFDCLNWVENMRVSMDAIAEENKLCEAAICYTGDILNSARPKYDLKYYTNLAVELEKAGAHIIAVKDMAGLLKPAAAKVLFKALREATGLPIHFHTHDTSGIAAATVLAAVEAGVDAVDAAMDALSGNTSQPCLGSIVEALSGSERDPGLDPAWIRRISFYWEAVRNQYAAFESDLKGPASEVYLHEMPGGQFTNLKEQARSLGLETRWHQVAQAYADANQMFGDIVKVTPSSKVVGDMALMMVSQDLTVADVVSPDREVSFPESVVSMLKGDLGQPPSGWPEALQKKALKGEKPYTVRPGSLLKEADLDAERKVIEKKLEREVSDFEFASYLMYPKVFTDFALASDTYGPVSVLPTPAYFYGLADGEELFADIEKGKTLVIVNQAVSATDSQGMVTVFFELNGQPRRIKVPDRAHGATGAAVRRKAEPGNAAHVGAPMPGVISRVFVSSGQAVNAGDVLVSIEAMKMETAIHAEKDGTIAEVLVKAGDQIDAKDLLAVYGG

[2] = biological target: T2, Rhizobium etli pyruvate carboxylase (RePC) (Rhizobium etli, UniProt Q2K340, R472K)
T2 sequence (Q2K340 1-1154 R472K): T1 sequence (Q2K340 1-1154 R427S) with S427R, R472K

[3] = biological target: Rhizobium etli pyruvate carboxylase (RePC) (Rhizobium etli, UniProt Q2K340, R472S)

Measured: Ki

N[C@@H](CC(=O)O)C(=O)O [L-aspartate]
7 ± 1 mM: [1] | [2] | [3]
